Target: Human KLKB1 (Homo sapiens (Human), UniProt P03952)
Test: KLKB1 kallikrein activity inhibition assay (chromogenic substrate S-2302)
Type: biochemical
Settings: not given
Procedure: The KLKB1 kallikrein activity reported herein (e.g., Tables B, C, and D) was obtained as follows. Human KLKB1 protein was obtained from Enzyme Research Labs. […] KLKB1 was assayed in buffer containing 0.05 M Tris (pH 7.4), 0.01 M NaCl and 0.2% w/v PEG-8000. The final concentration of enzyme used was 3 nM KLKB1. […] All assays were performed in 96-well microtiter plates at room temperature (RT). […] Inhibitor IC50 values were determined by adding test compound as ten point, three-fold serial dilutions in buffer solution, as known in the art. The plate was read at 10 minutes after substrate addition. The IC50 was calculated by plotting the percent (%) inhibition against compound concentration and fitting the data to a constrained four parameter sigmoidal curve, as known in the art.

Chain of Human KLKB1 (P03952 391-638 limits assumed): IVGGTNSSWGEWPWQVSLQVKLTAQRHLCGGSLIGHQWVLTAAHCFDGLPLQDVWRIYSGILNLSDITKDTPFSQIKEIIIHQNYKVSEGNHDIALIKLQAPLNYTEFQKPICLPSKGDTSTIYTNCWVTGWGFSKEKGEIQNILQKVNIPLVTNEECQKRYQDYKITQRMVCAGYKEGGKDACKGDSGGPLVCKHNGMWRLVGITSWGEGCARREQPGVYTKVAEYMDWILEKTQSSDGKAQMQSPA
Chain of Human KLKB1 (P03952 20-390 partner limits assumed): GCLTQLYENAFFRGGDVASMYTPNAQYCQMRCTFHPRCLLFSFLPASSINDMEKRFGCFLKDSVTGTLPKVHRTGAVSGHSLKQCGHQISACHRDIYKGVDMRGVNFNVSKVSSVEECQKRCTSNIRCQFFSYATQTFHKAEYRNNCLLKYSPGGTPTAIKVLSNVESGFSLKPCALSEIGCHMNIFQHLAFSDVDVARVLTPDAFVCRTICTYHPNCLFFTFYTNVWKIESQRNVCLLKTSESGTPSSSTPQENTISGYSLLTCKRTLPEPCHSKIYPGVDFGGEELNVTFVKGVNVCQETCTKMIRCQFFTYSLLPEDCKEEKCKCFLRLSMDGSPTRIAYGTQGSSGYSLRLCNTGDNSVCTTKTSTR

| Compound | IC50 [µM] |
| --- | --- |
| COC(=O)c1n[nH]c(NC(=O)c2ccc(C)cc2)n1 [Cmpd 408, methyl 5-[(4-methylbenzene)amido]-1H-1,2,4-triazole-3-carboxylate] | > 100 |

Same assay, conditions: Table C

| Compound | IC50 [µM] |
| --- | --- |
| CC(C)CC(=O)n1nc(-c2ccncc2)nc1NCc1ccc(F)cc1 [Cmpd 316] | > 100 |
| CCCC(=O)n1nc(-c2ccncc2)nc1NCc1ccc(F)cc1 [Cmpd 317] | > 100 |
| CCC(=O)n1nc(-c2ccncc2)nc1NCc1ccc(F)cc1 [Cmpd 318] | > 100 |
| COc1ccc(CNc2nc(-c3ccccn3)nn2C(=O)C(C)C)cc1 [Cmpd 320] | > 100 |
| COc1ccc(CNc2nc(-c3ccccn3)nn2C(=O)CC(C)C)cc1 [Cmpd 322] | 10 to 100 |
| COc1ccc(CNc2nc(-c3cccnc3)nn2C(=O)C(C)(C)C)cc1 [Cmpd 326] | > 100 |
| COc1ccc(CNc2nc(-c3cccnc3)nn2C(=O)CC(C)C)cc1 [Cmpd 328] | > 100 |
| COc1ccc(CNc2nc(-c3cccnc3)nn2C(=O)CCc2ccccc2)cc1 [Cmpd 329] | > 100 |
| CC(C)(C)C(=O)n1nc(C2CCCO2)nc1NCc1ccc(Cl)s1 (stereo not drawn) [Cmpd 331] | 1 to 10 |
| COc1ccccc1C(=O)n1nc(-c2ccccc2)nc1NCc1nccs1 [Cmpd 333] | > 100 |
| COc1ccccc1C(=O)n1nc(-c2ccccc2)nc1NCc1ccsc1 [Cmpd 335] | 10 to 100 |
| COc1ccc(CNc2nc(-c3ccncc3)nn2C(=O)c2ccco2)cc1 [Cmpd 337] | > 100 |
| COc1ccc(CNc2nc(-c3cccnc3)nn2C(=O)c2ccoc2)cc1 [Cmpd 339] | > 100 |
| CC(C)(C)C(=O)n1nc(-c2ccco2)nc1NCc1ccccc1 [Cmpd 342] | > 100 |
| O=C(Cc1ccccc1)n1nc(-c2ccco2)nc1NCc1ccccc1 [Cmpd 343] | > 100 |
| CC(C)(C)C(=O)n1nc(-c2ccccn2)nc1NCc1ccccc1 [Cmpd 344] | 10 to 100 |
| CCCC(=O)n1nc(-c2ccccn2)nc1NCc1ccccc1 [Cmpd 347] | 10 to 100 |
| CCC(=O)n1nc(-c2ccccn2)nc1NCc1ccccc1 [Cmpd 348] | 10 to 100 |
| CC(C)(C)C(=O)n1nc(-c2ccncc2)nc1NCc1ccccc1 [Cmpd 350] | > 100 |
| O=C(Cc1ccccc1)n1nc(-c2ccncc2)nc1NCc1ccccc1 [Cmpd 352] | > 100 |
| CC(C)CC(=O)n1nc(-c2ccncc2)nc1NCc1ccccc1 [Cmpd 353] | > 100 |
| O=C(CCc1ccccc1)n1nc(-c2ccncc2)nc1NCc1ccccc1 [Cmpd 354] | > 100 |

| Compound | IC50 [µM] |
| --- | --- |
| CCCC(=O)n1nc(-c2ccncc2)nc1NCc1ccccc1 [Cmpd 355] | > 100 |
| CCC(=O)n1nc(-c2ccncc2)nc1NCc1ccccc1 [Cmpd 356] | > 100 |
| O=C(c1cccnc1)n1nc(-c2cccnc2)nc1NCc1cccs1 [Cmpd 365] | 1 to 10 |
| O=C(c1ccoc1)n1nc(-c2ccncc2)nc1NCc1ccc(F)cc1 [Cmpd 373] | > 100 |
| CCCn1nc(-c2ccccn2)nc1NCc1ccc(F)cc1 [Cmpd 374] | > 100 |
| COc1ccc(CNc2nc(-c3ccccn3)nn2C(=O)c2ccsc2)cc1 [Cmpd 380] | 1 to 10 |
| COc1ccc(CNc2nc(-c3cccnc3)nn2C(=O)c2ccsc2)cc1 [Cmpd 382] | 1 to 10 |
| COc1ccccc1C(=O)n1nc(-c2ccccc2)nc1NCc1ccc(Cl)o1 [Cmpd 383] | > 100 |
| COc1ccccc1C(=O)n1nc(-c2ccc(N3CCOCC3)cc2)nc1NCc1ccc(Cl)s1 [Cmpd 389] | 1 to 10 |
| O=C(c1c(F)cccc1F)n1nc(-c2ccccn2)nc1NCc1ccccc1 [Cmpd 394] | > 100 |
| O=C(c1ccccc1Cl)n1nc(-c2ccccn2)nc1NCc1ccccc1 [Cmpd 395] | 0.1 to 1 |
| O=C(c1ccccc1Cl)n1nc(-c2cccs2)nc1NCc1ccccc1 [Cmpd 396] | 0.1 to 1 |
| O=C(c1ccco1)n1nc(-c2ccncc2)nc1NCc1ccccc1 [Cmpd 400] | 1 to 10 |
| O=C(c1ccoc1)n1nc(-c2ccccn2)nc1NCc1ccccc1 [Cmpd 401] | > 100 |
| O=C(c1ccoc1)n1nc(-c2ccncc2)nc1NCc1ccccc1 [Cmpd 402] | 10 to 100 |
| COc1ccccc1C(=O)n1nc(-c2ccco2)nc1NCc1ccccc1 [Cmpd 403] | 1 to 10 |
| O=C(c1cccs1)n1nc(-c2ccncc2)nc1NCc1ccccc1 [Cmpd 406] | > 100 |
| O=C(Oc1ccccc1)n1nc(-c2cccnc2)nc1NCc1ccc(F)cc1 [Cmpd 409] | > 100 |
| CC(C)OC(=O)n1nc(-c2cccnc2)nc1NCc1ccc(F)cc1 [Cmpd 410] | > 100 |
| COc1ccccc1C(=O)n1nc(C2CCN(C(=O)OC(C)(C)C)CC2)nc1NCc1ccc(Cl)s1 [Cmpd 412] | 0.1 to 1 |
| CC(C)(C)OC(=O)n1nc(-c2cccnc2)nc1NCc1ccc(F)cc1 [Cmpd 413] | > 100 |

The remaining lines, values ahead:

| IC50 [µM] | Compound |
| --- | --- |
| 10 to 100 | CC(C)C(=O)n1nc(-c2cccnc2)nc1NCc1ccc(F)cc1 [Cmpd 310] |
| 1 to 10 | O=C(Cc1ccccc1)n1nc(-c2cccnc2)nc1NCc1ccc(F)cc1 [Cmpd 311] |
| 10 to 100 | CC(C)CC(=O)n1nc(-c2cccnc2)nc1NCc1ccc(F)cc1 [Cmpd 312] |
| 10 to 100 | O=C(CCc1ccccc1)n1nc(-c2cccnc2)nc1NCc1ccc(F)cc1 [Cmpd 313] |
| 10 to 100 | CCCC(=O)n1nc(-c2cccnc2)nc1NCc1ccc(F)cc1 [Cmpd 314] |
| 10 to 100 | CC(C)C(=O)n1nc(-c2ccncc2)nc1NCc1ccc(F)cc1 [Cmpd 315] |
| 10 to 100 | COc1ccc(CNc2nc(-c3ccccn3)nn2C(=O)C(C)(C)C)cc1 [Cmpd 319] |
| 10 to 100 | COc1ccc(CNc2nc(-c3ccccn3)nn2C(=O)Cc2ccccc2)cc1 [Cmpd 321] |
| 10 to 100 | CCCC(=O)n1nc(-c2ccccn2)nc1NCc1ccc(OC)cc1 [Cmpd 324] |
| 10 to 100 | CCC(=O)n1nc(-c2ccccn2)nc1NCc1ccc(OC)cc1 [Cmpd 325] |
| 10 to 100 | COc1ccc(CNc2nc(-c3cccnc3)nn2C(=O)Cc2ccccc2)cc1 [Cmpd 327] |
| 10 to 100 | CCCC(=O)n1nc(-c2cccnc2)nc1NCc1ccc(OC)cc1 [Cmpd 330] |
| 1 to 10 | COc1ccc(CNc2nc(-c3ccccn3)nn2C(=O)c2ccco2)cc1 [Cmpd 336] |
| 10 to 100 | COc1ccc(CNc2nc(-c3ccccn3)nn2C(=O)c2ccoc2)cc1 [Cmpd 338] |
| 10 to 100 | CCC(=O)n1nc(-c2cccnc2)nc1NCc1cccs1 [Cmpd 340] |
| 0.1 to 1 | COc1ccccc1C(=O)n1nc(C2CCN(C(=O)C(C)(C)C)CC2)nc1NCc1ccc(Cl)s1 [Cmpd 341] |
| 10 to 100 | CC(C)C(=O)n1nc(-c2ccccn2)nc1NCc1ccccc1 [Cmpd 345] |
| 10 to 100 | CC(C)CC(=O)n1nc(-c2ccccn2)nc1NCc1ccccc1 [Cmpd 346] |
| 10 to 100 | CCC(=O)n1nc(-c2cccnc2)nc1NCc1ccccc1 [Cmpd 349] |
| 1 to 10 | CC(C)C(=O)n1nc(-c2ccncc2)nc1NCc1ccccc1 [Cmpd 351] |
| > 100 | CC(C)(C)C(=O)n1nc(-c2cccs2)nc1NCc1ccccc1 [Cmpd 357] |
| 0.1 to 1 | O=C(c1ccccc1)n1nc(-c2cccnc2)nc1NCc1ccc(F)cc1 [Cmpd 359] |
| 0.1 to 1 | O=C(c1ccccc1)n1nc(-c2ccncc2)nc1NCc1ccccc1 [Cmpd 363] |

| IC50 [µM] | Compound |
| --- | --- |
| < 0.1 | COc1ccccc1C(=O)n1nc(C2CN(S(=O)(=O)N(C)C)C2)nc1NCc1ccc(Cl)s1 [Cmpd 364] |
| 1 to 10 | COc1ccccc1C(=O)n1nc(-c2ccccn2)nc1NCc1ccc(F)cc1 [Cmpd 367] |
| 1 to 10 | COc1ccccc1C(=O)n1nc(-c2cccnc2)nc1NCc1ccc(F)cc1 [Cmpd 368] |
| 1 to 10 | O=C(c1ccco1)n1nc(-c2ccccn2)nc1NCc1ccc(F)cc1 [Cmpd 369] |
| 1 to 10 | O=C(c1ccco1)n1nc(-c2cccnc2)nc1NCc1ccc(F)cc1 [Cmpd 370] |
| 1 to 10 | O=C(c1ccoc1)n1nc(-c2ccccn2)nc1NCc1ccc(F)cc1 [Cmpd 371] |
| 1 to 10 | O=C(c1ccoc1)n1nc(-c2cccnc2)nc1NCc1ccc(F)cc1 [Cmpd 372] |
| 0.1 to 1 | O=C(c1ccsc1)n1nc(-c2ccccn2)nc1NCc1ccc(F)cc1 [Cmpd 375] |
| 1 to 10 | O=C(c1cccs1)n1nc(-c2cccnc2)nc1NCc1ccc(F)cc1 [Cmpd 376] |
| 0.1 to 1 | O=C(c1ccsc1)n1nc(-c2cccnc2)nc1NCc1ccc(F)cc1 [Cmpd 377] |
| > 100 | O=C(c1cccs1)n1nc(-c2ccncc2)nc1NCc1ccc(F)cc1 [Cmpd 378] |
| > 100 | COc1ccc(CNc2nc(-c3ccccn3)nn2C(=O)c2cccs2)cc1 [Cmpd 379] |
| > 100 | COc1ccc(CNc2nc(-c3cccnc3)nn2C(=O)c2cccs2)cc1 [Cmpd 381] |
| 0.1 to 1 | COc1ccccc1C(=O)n1nc(C2CCOCC2)nc1NCc1ccc(Cl)s1 [Cmpd 385] |
| 0.1 to 1 | COc1ccccc1C(=O)n1nc(C2CCCO2)nc1NCc1ccc(Cl)s1 (stereo not drawn) [Cmpd 386] |
| < 0.1 | COc1ccccc1C(=O)n1nc(C2CN(S(=O)(=O)N3CCCC3)C2)nc1NCc1ccc(Cl)s1 [Cmpd 388] |
| 0.1 to 1 | O=C(c1ccoc1)n1nc(C2CCCO2)nc1NCc1ccc(Cl)s1 (stereo not drawn) [Cmpd 392] |
| 1 to 10 | COc1ccccc1C(=O)n1nc(-c2ccccn2)nc1NCc1ccccc1 [Cmpd 397] |
| 1 to 10 | COc1ccccc1C(=O)n1nc(-c2cccs2)nc1NCc1ccccc1 [Cmpd 398] |
| 0.1 to 1 | O=C(c1ccc(Cl)cc1)n1nc(-c2ccccn2)nc1NCc1ccccc1 [Cmpd 399] |
| 1 to 10 | O=C(c1cccs1)n1nc(-c2ccccn2)nc1NCc1ccccc1 [Cmpd 404] |
| 10 to 100 | O=C(c1ccsc1)n1nc(-c2ccccn2)nc1NCc1ccccc1 [Cmpd 405] |
| 0.1 to 1 | COc1ccccc1C(=O)n1nc(C2CN(C(=O)OC(C)(C)C)C2)nc1NCc1ccc(Cl)s1 [Cmpd 411] |

— patent US9687479B2, “Multisubstituted aromatic compounds as serine protease inhibitors” (VERSEON CORPORATION, priority 2013, dated 2017)
